Values quoted from earlier work, collected in article PMC11881559 (Antimicrobial Agents and Chemotherapy, 2025).

How the values were obtained:
[1] = system: Delta variant of the novel coronavirus; details: K18-hACE2 mice infected with Delta variant, 300 mg/kg/day; cited from earlier work
[2] = system: SARS-CoV-2 variants, including the wild-type, Alpha, Beta, Delta, and Omicron strains; details: cited from earlier work

O=C(NC1CCCC1)C(=O)[C@H](C[C@@H]1CCNC1=O)NC(=O)[C@@H]1[C@H]2CCC[C@H]2CN1C(=O)[C@@H](NC(=O)C(F)(F)F)C1CCCCC1 [RAY1216, leritrelvir]
lung viral titers and virus-induced pathology [1]: significantly decreased lung viral titers and reduced virus-induced pathology | inhibition of SARS-CoV-2 variants in vitro [2]: clearly inhibited
